Experiments:
IL-8 = IL-8 release by human skin explants, pollution model (BaP), ELISA; type: cell-based; details: PMA 1 μg/ml systemic, 24 h, without pollution
Description: b)—The product was systemically applied for 24 hours, on human skin explants (diameter of 8 mm), provided by Biopredic™ International (Rennes), which derived from mammary plastic surgery (person);
c)—The product was then applied again during pollution, for another 24 hours. Said pollution was induced in this model by application of an environmental pollutant, benzo(a)pyrene (3,4-benzopyrene/BaP) as systemic treatment, i.e. in the culture medium. This pollutant induces IL-8 release (SEPhRA results).
a)—A 2% (DE) HCR extract is diluted in the culture medium to obtain a 0.1% (DE) HCR extract, which is used as the test compound.
b)—Said HCR extract was systemically applied on the skin explants as a twenty-four hours pre-treatment. […]
e)—In order to validate the IL-8 titration, an additional condition was evaluated, i.e. stimulation with a reference pro-inflammatory molecule PMA (Phorbol 12-myristate 13-acetate, Sigma P8139), at 1 μg/ml. […]
d)—The inflammatory cytokine IL-8 was then measured out with a commercial kit from Bio-Techne/R&Dsystems (D8000C), which is an ELISA method. […] Titration raw data were obtained by measuring the absorbance or the optical density (OD) at 450 nm wavelength, with 570 nm as a reference.
e)—The concentrations of IL-8 measured in the samples were determined by using a concentration range of an IL-8 standard. […]

[1] = tested on: murine B16 melanocytes (B16-F0 line); assay: Melanin titration in B16 melanocytes (melanogenesis); type: cell-based; details: Mus musculus, B16F0; kojic acid 1 mM; read-out: Inhibition of the melanin release in the culture medium
Description: • 1)—Background Information The aim of this study is to evaluate the effects of HCR extracts on melanogenesis in an in vitro model of murine B16 melanocytes. Cells used in this study were murine melanocytes (B16-F0 line, LGC standards, ATCC-CRL-6322) extracted from murine skin. This cells lines synthesizes a great quantity of melanin which is released in the culture media (so called supernatants), so a titration by spectrophotometry is easy to achieve. These melanocytes were cultured as monolayers; the test compounds were applied during seventy two hours and the synthesized melanin was then released and measured out in the supernatants. A XTT assay was previously performed, to check the cells viability, in order to determine the concentrations to be tested, as described in Example 2. • 2)—Dose Determination (CytotoxicityNiability Check by XTT Assay) and Evaluated Test Compound
B16 melanocytes were seeded in 24-wells plates. […]
Cells were seeded into 24-wells plates (at a cell density of […], i.e. 31,250 B16/cm^2), in the same medium as previously described, one day before treatment (incubation at 37° C./5% CO2). […] After 48 or 72 hours of treatment, the supernatants were homogenized and aliquots were transferred to 96-well plates for spectrophotometry reading at 492 nm wavelength (reading in duplicate). […]

SMILES | IL-8 release, change compared to untreated/unpolluted control (IL-8) | inhibition at 1000 µM [1]
CCCCCCCCCCCCCC(=O)O[C@@H]1[C@@H](C)[C@@]2(O)[C@@H](C=C(CO)C[C@]3(O)C(=O)C(C)=C[C@@H]23)[C@@H]2C(C)(C)[C@]12OC(C)=O [PMA, Phorbol 12-myristate 13-acetate] | +224% | 
O=c1cc(CO)occ1O [kojic acid] |  | > 90%
